Laboratory results as given in ChEMBL document CHEMBL1159126, “Salicylanilide carbamates: antitubercular agents active against multidrug-resistant Mycobacterium tuberculosis strains” (Bioorg Med Chem, 2010).
≈ marks a conversion by molar mass, not a printed value.

Assays:
[1] = test system: Mycobacterium kansasii; assay: Antimycobacterial activity against Mycobacterium kansasii 6509/96 after 21 days by micromethod; type: functional; settings: 6509/96, 504 h
[2] = test system: Mycobacterium kansasii; assay: Antimycobacterial activity against Mycobacterium kansasii 6509/96 after 14 days by micromethod; type: functional; settings: 6509/96, 336 h
[3] = test system: Mycobacterium tuberculosis; assay: microbe, parasite or virus in culture; settings: 331/88, 336 h
Description: Antimycobacterial activity against Mycobacterium tuberculosis 331/88 after 14 days by micromethod

[4] = Partition coefficient, log P of the compound; type: physicochemical; settings: octanol/water
[5] = test system: Mycobacterium kansasii; assay: Antimycobacterial activity against Mycobacterium kansasii 235/80 after 14 days by micromethod; type: functional; settings: 235/80, 336 h
[6] = test system: Mycobacterium avium; assay: Antimycobacterial activity against Mycobacterium avium 330/88 after 21 days by micromethod; type: functional; settings: 330/88, 504 h
[7] = test system: Mycobacterium tuberculosis; assay: microbe, parasite or virus in culture; settings: 331/88, 504 h
Description: Antimycobacterial activity against Mycobacterium tuberculosis 331/88 after 21 days by micromethod

[8] = test system: Mycobacterium avium; assay: Antimycobacterial activity against Mycobacterium avium 330/88 after 14 days by micromethod; type: functional; settings: 330/88, 336 h
[9] = test system: Mycobacterium kansasii; assay: Antimycobacterial activity against Mycobacterium kansasii 235/80 after 21 days by micromethod; type: functional; settings: 235/80, 504 h
[10] = Toxicity against human HCT8 cells after 72 hrs by XTT assay; type: cell-based, HCT-8
[11] = Stability in 100 mM phosphate buffer at pH 5 assessed as compound degradation by HPLC; type: physicochemical
[12] = Stability in 100 mM phosphate buffer at pH 3 assessed as compound degradation by HPLC; type: physicochemical
[13] = Stability in 100 mM phosphate buffer at pH 7 assessed as compound degradation by HPLC; type: physicochemical
[14] = Stability in 100 mM phosphate buffer at pH 6 assessed as compound degradation by HPLC; type: physicochemical
[15] = Stability in 100 mM phosphate buffer at pH 8 assessed as compound degradation by HPLC; type: physicochemical
[16] = Stability in 100 mM phosphate buffer at pH 4 assessed as compound degradation by HPLC; type: physicochemical
[17] = Stability in 100 mM phosphate buffer at pH 7.4 assessed as compound degradation by HPLC; type: physicochemical

| SMILES | MIC [1] [µM] | MIC [2] [µM] | MIC [3] [µM] | logP [4] | MIC [5] [µM] | MIC [6] [µM] | MIC [7] [µM] | MIC [8] [µM] | MIC [9] [µM] | EC50 at 72 h [10] [µM] | Stability [11] | Stability [12] | half-life [13] [h] | half-life [14] [h] | half-life [15] [h] | Stability [16] | half-life [17] [h] |
| --- | --- | --- | --- | --- | --- | --- | --- | --- | --- | --- | --- | --- | --- | --- | --- | --- | --- |
| CCCCCCCCCNC(=O)Oc1ccc(Cl)cc1C(=O)Nc1cccc(Cl)c1 | 4 (≈ 1.81 µg/mL) | 4 (≈ 1.81 µg/mL) | 1 (≈ 0.451 µg/mL) | 6.78 | 4 (≈ 1.81 µg/mL) | 4 (≈ 1.81 µg/mL) | 2 (≈ 0.903 µg/mL) | 2 (≈ 0.903 µg/mL) | 4 (≈ 1.81 µg/mL) |  |  |  |  |  |  |  |  |
| CCCCCCCCCCNC(=O)Oc1ccc(Cl)cc1C(=O)Nc1cccc(Cl)c1 | 8 (≈ 3.72 µg/mL) | 8 (≈ 3.72 µg/mL) | 1 (≈ 0.465 µg/mL) | 7.19 | 8 (≈ 3.72 µg/mL) | 8 (≈ 3.72 µg/mL) | 2 (≈ 0.931 µg/mL) | 8 (≈ 3.72 µg/mL) | 8 (≈ 3.72 µg/mL) |  |  |  |  |  |  |  |  |
| CCCCCCCCCCCNC(=O)Oc1ccc(Cl)cc1C(=O)Nc1ccc(Cl)cc1 | 8 (≈ 3.84 µg/mL) | 8 (≈ 3.84 µg/mL) | 2 (≈ 0.959 µg/mL) | 7.61 | 8 (≈ 3.84 µg/mL) | 8 (≈ 3.84 µg/mL) | 2 (≈ 0.959 µg/mL) | 8 (≈ 3.84 µg/mL) | 8 (≈ 3.84 µg/mL) |  |  |  |  |  |  |  |  |
| CCNC(=O)Oc1ccc(Cl)cc1C(=O)Nc1cccc(Cl)c1 | 8 (≈ 2.83 µg/mL) | 8 (≈ 2.83 µg/mL) | 2 (≈ 0.706 µg/mL) | 3.79 | 8 (≈ 2.83 µg/mL) | 8 (≈ 2.83 µg/mL) | 2 (≈ 0.706 µg/mL) | 8 (≈ 2.83 µg/mL) | 8 (≈ 2.83 µg/mL) |  |  |  |  |  |  |  |  |
| CCCCNC(=O)Oc1ccc(Cl)cc1C(=O)Nc1cccc(Cl)c1 | 16 (≈ 6.1 µg/mL) | 8 (≈ 3.05 µg/mL) | 2 (≈ 0.763 µg/mL) | 4.69 | 16 (≈ 6.1 µg/mL) | 16 (≈ 6.1 µg/mL) | 4 (≈ 1.53 µg/mL) | 8 (≈ 3.05 µg/mL) | 16 (≈ 6.1 µg/mL) |  |  |  |  |  |  |  |  |
| CCCCCCNC(=O)Oc1ccc(Cl)cc1C(=O)Nc1ccc(Cl)c(Cl)c1 | 2 (≈ 0.888 µg/mL) | 1 (≈ 0.444 µg/mL) | 0.5 (≈ 0.222 µg/mL) | 6.08 | 2 (≈ 0.888 µg/mL) | 8 (≈ 3.55 µg/mL) | 0.5 (≈ 0.222 µg/mL) | 4 (≈ 1.78 µg/mL) | 2 (≈ 0.888 µg/mL) | 27.9 | Stable | Stable | 64 | 118 | 5 | Stable | 43 |
| CCCCCNC(=O)Oc1ccc(Cl)cc1C(=O)Nc1cccc(Cl)c1 | 8 (≈ 3.16 µg/mL) | 8 (≈ 3.16 µg/mL) | 2 (≈ 0.791 µg/mL) | 5.11 | 8 (≈ 3.16 µg/mL) | 8 (≈ 3.16 µg/mL) | 4 (≈ 1.58 µg/mL) | 8 (≈ 3.16 µg/mL) | 8 (≈ 3.16 µg/mL) |  |  |  |  |  |  |  |  |
| CCNC(=O)Oc1ccc(Cl)cc1C(=O)Nc1ccc(Cl)c(Cl)c1 | 4 (≈ 1.55 µg/mL) | 2 (≈ 0.775 µg/mL) | 0.5 (≈ 0.194 µg/mL) | 4.35 | 2 (≈ 0.775 µg/mL) | 32 (≈ 12.4 µg/mL) | 1 (≈ 0.388 µg/mL) | 16 (≈ 6.2 µg/mL) | 4 (≈ 1.55 µg/mL) | 31 |  |  |  |  |  |  |  |
| CCCCNC(=O)Oc1ccc(Cl)cc1C(=O)Nc1ccc(Cl)c(Cl)c1 | 4 (≈ 1.66 µg/mL) | 2 (≈ 0.831 µg/mL) | 0.5 (≈ 0.208 µg/mL) | 5.25 | 2 (≈ 0.831 µg/mL) | 16 (≈ 6.65 µg/mL) | 1 (≈ 0.416 µg/mL) | 8 (≈ 3.33 µg/mL) | 2 (≈ 0.831 µg/mL) | 38 |  |  |  |  |  |  |  |
| CCCCCNC(=O)Oc1ccc(Cl)cc1C(=O)Nc1ccc(Cl)c(Cl)c1 | 4 (≈ 1.72 µg/mL) | 2 (≈ 0.859 µg/mL) | 0.5 (≈ 0.215 µg/mL) | 5.67 | 2 (≈ 0.859 µg/mL) | 16 (≈ 6.88 µg/mL) | 0.5 (≈ 0.215 µg/mL) | 8 (≈ 3.44 µg/mL) | 2 (≈ 0.859 µg/mL) | 40 |  |  |  |  |  |  |  |
| CCNC(=O)Oc1ccc(Cl)cc1C(=O)Nc1ccc(Cl)cc1 | 8 (≈ 2.83 µg/mL) | 4 (≈ 1.41 µg/mL) | 1 (≈ 0.353 µg/mL) | 3.79 | 4 (≈ 1.41 µg/mL) | 8 (≈ 2.83 µg/mL) | 2 (≈ 0.706 µg/mL) | 8 (≈ 2.83 µg/mL) | 8 (≈ 2.83 µg/mL) |  |  |  |  |  |  |  |  |
| CCCCCNC(=O)Oc1ccc(Cl)cc1C(=O)Nc1ccc(Cl)cc1 | 4 (≈ 1.58 µg/mL) | 4 (≈ 1.58 µg/mL) | 0.5 (≈ 0.198 µg/mL) | 5.11 | 2 (≈ 0.791 µg/mL) | 8 (≈ 3.16 µg/mL) | 0.5 (≈ 0.198 µg/mL) | 8 (≈ 3.16 µg/mL) | 4 (≈ 1.58 µg/mL) | 17.4 |  |  |  |  |  |  |  |
| CCCCCCNC(=O)Oc1ccc(Cl)cc1C(=O)Nc1ccc(Cl)cc1 | 4 (≈ 1.64 µg/mL) | 2 (≈ 0.819 µg/mL) | 1 (≈ 0.409 µg/mL) | 5.53 | 4 (≈ 1.64 µg/mL) | 8 (≈ 3.27 µg/mL) | 2 (≈ 0.819 µg/mL) | 4 (≈ 1.64 µg/mL) | 4 (≈ 1.64 µg/mL) |  |  |  |  |  |  |  |  |
| CCCCCCCCCCCNC(=O)Oc1ccc(Cl)cc1C(=O)Nc1ccc(Cl)c(Cl)c1 | 4 (≈ 2.06 µg/mL) | 4 (≈ 2.06 µg/mL) | 2 (≈ 1.03 µg/mL) | 8.17 | 4 (≈ 2.06 µg/mL) | 16 (≈ 8.22 µg/mL) | 2 (≈ 1.03 µg/mL) | 16 (≈ 8.22 µg/mL) | 4 (≈ 2.06 µg/mL) |  |  |  |  |  |  |  |  |
